Source: US10954246B2, “Compound of EOC315 Mod.I crystal form and preparation method thereof” (Taizhou EOC Pharma Co., Ltd., priority 2017, dated 2021)
Where a name gives a salt, the structure may show the parent alone.

Assay: Stability evaluation under accelerated condition (40° C., RH 75%)
Assay type: physicochemical
Experimental: Long-term stability over twelve months was evaluated at 25° C. and a relative humidity of 60%; or accelerated stability over six months was evaluated at 40° C. and a relative humidity of 75%.

[1] = Month 0, limit 0.10%, listed as 151211
[2] = Month 0, limit 0.10%, listed as 151212
[3] = Month 0, limit 0.10%, listed as 151213
[4] = Month 1, limit 0.10%, listed as 151211
[5] = Month 1, limit 0.10%, listed as 151212
[6] = Month 1, limit 0.10%, listed as 151213
[7] = Month 1, limit 0.17%, listed as 151211
[8] = Month 1, limit 0.17%, listed as 151212
[9] = Month 1, limit 0.17%, listed as 151213
[10] = Month 2, limit 0.10%, listed as 151211
[11] = Month 2, limit 0.10%, listed as 151212
[12] = Month 2, limit 0.10%, listed as 151213
[13] = Month 2, limit 0.17%, listed as 151211
[14] = Month 2, limit 0.17%, listed as 151212
[15] = Month 2, limit 0.17%, listed as 151213
[16] = Month 3, limit 0.10%, listed as 151211
[17] = Month 3, limit 0.10%, listed as 151212
[18] = Month 3, limit 0.10%, listed as 151213
[19] = Month 6, limit 0.10%, listed as 151211
[20] = Month 6, limit 0.10%, listed as 151212
[21] = Month 6, limit 0.10%, listed as 151213
[22] = Month 6, limit 0.17%, listed as 151211
[23] = Month 6, limit 0.17%, listed as 151212
[24] = Month 6, limit 0.17%, listed as 151213

Compound: CNC(=O)c1cc(OCc2nnc(Nc3ccc(Cl)cc3)c3ccoc23)ccn1 [EOC315 crystalline form Mod. I, 4-(4-chloroanilino)-7-(2-methylaminocarbonyl-4-oxymethyl)pyridylfuro[2,3-d]pyridazine mesylate]
- Related substance Impurity 5 [1]: 0.02%
- Related substance Impurity 6 [1]: 0.01%
- Related substance Impurity 5 [2]: 0.01%
- Related substance Impurity 6 [2]: Undetected
- Related substance Impurity 5 [3]: Undetected
- Related substance Impurity 6 [3]: Undetected
- Related substance Maximum single impurity (Month 0, limit 0.15%, listed as 151211): 0.0079%
- Related substance Maximum single impurity (Month 0, limit 0.15%, listed as 151212): 0.012%
- Related substance Maximum single impurity (Month 0, limit 0.15%, listed as 151213): 0.0085%
- Related substance Impurity 1 (Month 0, limit 0.17%): Undetected
- Related substance Impurity 2 (Month 0, limit 0.17%): Undetected
- Related substance Impurity 3 (Month 0, limit 0.17%, listed as 151211): 0.016%
- Related substance Impurity 3 (Month 0, limit 0.17%, listed as 151212): 0.011%
- Related substance Impurity 3 (Month 0, limit 0.17%, listed as 151213): 0.011%
- Related substance Total impurity (Month 0, limit 1.0%, listed as 151211): 0.53%
- Related substance Total impurity (Month 0, limit 1.0%, listed as 151212): 0.66%
- Related substance Total impurity (Month 0, limit 1.0%, listed as 151213): 0.52%
- Related substance Impurity 4 (Month 0, limit 3.0%, listed as 151211): 0.36%
- Related substance Impurity 4 (Month 0, limit 3.0%, listed as 151212): 0.46%
- Related substance Impurity 4 (Month 0, limit 3.0%, listed as 151213): 0.35%
- Crystalline form (Month 0, limit ModI): ModI
- Related substance Impurity 5 [4]: Undetected
- Related substance Impurity 6 [4]: 0.01%
- Related substance Impurity 5 [5]: 0.01%
- Related substance Impurity 6 [5]: Undetected
- Related substance Impurity 5 [6]: 0.01%
- Related substance Impurity 6 [6]: Undetected
- Related substance Maximum single impurity (Month 1, limit 0.15%, listed as 151211): 0.011%
- Related substance Maximum single impurity (Month 1, limit 0.15%, listed as 151212): Undetected
- Related substance Maximum single impurity (Month 1, limit 0.15%, listed as 151213): 0.0077%
- Related substance Impurity 1 (Month 1, limit 0.17%): Undetected
- Related substance Impurity 2 [7]: 0.0031%
- Related substance Impurity 3 [7]: 0.0040%
- Related substance Impurity 2 [8]: 0.0026%
- Related substance Impurity 3 [8]: 0.0037%
- Related substance Impurity 2 [9]: Undetected
- Related substance Impurity 3 [9]: 0.0035%
- Related substance Total impurity (Month 1, limit 1.0%, listed as 151211): 0.5%
- Related substance Total impurity (Month 1, limit 1.0%, listed as 151212): 0.6%
- Related substance Total impurity (Month 1, limit 1.0%, listed as 151213): 0.5%
- Related substance Impurity 4 (Month 1, limit 3.0%, listed as 151211): 0.4%
- Related substance Impurity 4 (Month 1, limit 3.0%, listed as 151212): 0.5%
- Related substance Impurity 4 (Month 1, limit 3.0%, listed as 151213): 0.3%
- Related substance Impurity 5 [10]: Undetected
- Related substance Impurity 6 [10]: 0.01%
- Related substance Impurity 5 [11]: 0.02%
- Related substance Impurity 6 [11]: Undetected
- Related substance Impurity 5 [12]: Undetected
- Related substance Impurity 6 [12]: Undetected
- Related substance Maximum single impurity (Month 2, limit 0.15%, listed as 151211): 0.0045%
- Related substance Maximum single impurity (Month 2, limit 0.15%, listed as 151212): 0.0062%
- Related substance Maximum single impurity (Month 2, limit 0.15%, listed as 151213): 0.0067%
- Related substance Impurity 1 (Month 2, limit 0.17%): Undetected
- Related substance Impurity 2 [13]: Undetected
- Related substance Impurity 3 [13]: 0.0013%
- Related substance Impurity 2 [14]: 0.0036%
- Related substance Impurity 3 [14]: 0.0070%
- Related substance Impurity 2 [15]: 0.0035%
- Related substance Impurity 3 [15]: 0.014%
- Related substance Total impurity (Month 2, limit 1.0%, listed as 151211): 0.6%
- Related substance Total impurity (Month 2, limit 1.0%, listed as 151212): 0.7%
- Related substance Total impurity (Month 2, limit 1.0%, listed as 151213): 0.6%
- Related substance Impurity 4 (Month 2, limit 3.0%, listed as 151211): 0.4%
- Related substance Impurity 4 (Month 2, limit 3.0%, listed as 151212): 0.5%
- Related substance Impurity 4 (Month 2, limit 3.0%, listed as 151213): 0.4%
- Related substance Impurity 5 [16]: 0.01%
- Related substance Impurity 6 [16]: 0.02%
- Related substance Impurity 5 [17]: 0.01%
- Related substance Impurity 6 [17]: Undetected
- Related substance Impurity 5 [18]: Undetected
- Related substance Impurity 6 [18]: 0.01% d
- Related substance Maximum single impurity (Month 3, limit 0.15%): Undetected
- Related substance Impurity 1 (Month 3, limit 0.17%): Undetected
- Related substance Impurity 2 (Month 3, limit 0.17%): Undetected
- Related substance Impurity 3 (Month 3, limit 0.17%): Undetected
- Related substance Total impurity (Month 3, limit 1.0%, listed as 151211): 0.5%
- Related substance Total impurity (Month 3, limit 1.0%, listed as 151212): 0.6%
- Related substance Total impurity (Month 3, limit 1.0%, listed as 151213): 0.5%
- Related substance Impurity 4 (Month 3, limit 3.0%, listed as 151211): 0.4%
- Related substance Impurity 4 (Month 3, limit 3.0%, listed as 151212): 0.5%
- Related substance Impurity 4 (Month 3, limit 3.0%, listed as 151213): 0.37%
- Related substance Impurity 5 [19]: 0.01%
- Related substance Impurity 6 [19]: 0.01%
- Related substance Impurity 5 [20]: 0.01%
- Related substance Impurity 6 [20]: Undetected
- Related substance Impurity 5 [21]: Undetected
- Related substance Impurity 6 [21]: Undetected
- Related substance Maximum single impurity (Month 6, limit 0.15%, listed as 151211): 0.030%
- Related substance Maximum single impurity (Month 6, limit 0.15%, listed as 151212): 0.032%
- Related substance Maximum single impurity (Month 6, limit 0.15%, listed as 151213): 0.029%
- Related substance Impurity 1 (Month 6, limit 0.17%): Undetected
- Related substance Impurity 2 [22]: 0.0061%
- Related substance Impurity 3 [22]: 0.045%
- Related substance Impurity 2 [23]: 0.0043%
- Related substance Impurity 3 [23]: 0.044%
- Related substance Impurity 2 [24]: 0.045%
- Related substance Impurity 3 [24]: 0.060%
- Related substance Total impurity (Month 6, limit 1.0%, listed as 151211): 0.7%
- Related substance Total impurity (Month 6, limit 1.0%, listed as 151212): 0.8%
- Related substance Total impurity (Month 6, limit 1.0%, listed as 151213): 0.7%
- Related substance Impurity 4 (Month 6, limit 3.0%, listed as 151211): 0.4%
- Related substance Impurity 4 (Month 6, limit 3.0%, listed as 151212): 0.5%
- Related substance Impurity 4 (Month 6, limit 3.0%, listed as 151213): 0.4%
- Crystalline form (Month 6, limit ModI): ModI
